The results in this text go back to patent publication US11884627B2, “Compounds and compositions for treating conditions associated with LPA receptor activity” (Lhotse Bio, Inc., priority 2022, dated 2024).

pIC50: −log10 of the molar value. Like-named read-outs stand apart in the source and are kept apart here. Where only a bound is given, the exact number is not on record here.

In the assay the target is T1, human LPA1 (Homo sapiens, UniProt Q92633).
T1 construct: expressed in transfected cells; host or cells: CHO-K1
Kind of assay: In vitro LPA1 calcium flux antagonist assay - Bioduro protocol. The format is cell-based. As to conditions: CHO-K1 cells overexpressing human LPA1 and G15a, LPA challenge at EC80. In short, it runs like this: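 Calcium mobilization read on FLIPR after EC80 LPA was added to compound-pretreated (30 min) CHO-K1 cells co-expressing human LPA1 and G15a. Cells were starved 4 h and dye-loaded with Fluo-8 AM/2.5 mM probenecid in HBSS-Hepes; inhibition normalized between DMSO and LPA-control RFU.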
Background: Calcium flux is commonly read through the fluorescence of an indicator in the cells.

Where [1] appears, read: calcium mobilization on FLIPR Tetra, read-out: IC50.
Where [2] appears, read: Table B3, read-out: Activity (IC50 class).

T1 sequence (Q92633 whole entry): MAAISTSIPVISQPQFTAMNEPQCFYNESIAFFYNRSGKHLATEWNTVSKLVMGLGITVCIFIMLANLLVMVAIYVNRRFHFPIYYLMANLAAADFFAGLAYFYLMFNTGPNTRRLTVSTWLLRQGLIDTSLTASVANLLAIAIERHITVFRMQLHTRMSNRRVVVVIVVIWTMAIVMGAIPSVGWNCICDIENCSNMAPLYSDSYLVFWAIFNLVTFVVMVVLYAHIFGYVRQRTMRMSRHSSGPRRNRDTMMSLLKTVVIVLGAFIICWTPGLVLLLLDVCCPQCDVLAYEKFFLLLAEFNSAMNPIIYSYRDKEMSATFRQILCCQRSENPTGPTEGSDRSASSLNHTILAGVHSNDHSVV

As to `COc1cc(-c2ccc(NC3(C(=O)O)CCOCC3)c(F)c2COC2CCCC2)c(F)c(OC)c1C` [Compound 227], the negative-log IC50 (pIC50) by setting is: under setting [1], 7.60; under setting [2], greater than 7.00.

For the molecule `CCOc1c(C)ccc(-c2ccc(OC3(C(=O)O)CCOCC3)cc2COC2CC2)c1C` [Compound 369], the negative-log IC50 (pIC50) was 7.35 under setting [1] and greater than 7.00 under setting [2].

For `CCOc1c(F)ccc(-c2ccc(NC3(C(=O)O)CCOCC3)cc2COC2CCCC2)c1F` [Compound 266], the pIC50 is 6.85 under setting [1] and 6.00 to 7.00 under setting [2].

`CCOc1cncc(-c2ccc(NC3(C(=O)O)CCCC3)cc2COC2CC2)c1C` [Compound 417]: the pIC50 under setting [1] is 7.45 and the negative logarithm of the IC50 (pIC50) under setting [2] is greater than 7.00.

As for `CCCOc1cccc(-c2ccc(NC3(C(=O)O)CCOCC3)cc2COC2CC2)c1F` [Compound 307], the pIC50 is 7.23 under setting [1] and greater than 7.00 under setting [2].

As to `COc1cc(-c2c(F)cc(NC3(C(=O)O)CCOCC3)cc2COC2CCCC2)c(F)c(OC)c1C` [Compound 168], the negative-log IC50 (pIC50) was 7.56 under setting [1] and greater than 7.00 under setting [2].

As to `COc1cc(OC)nc(-c2c(C)cc(NC3(C(=O)O)CCOCC3)cc2COC2CCCC2)n1` [Compound 178], the negative-log IC50 (pIC50) under setting [1] was 5.88 and the pIC50 under setting [2] was less than 6.00.

For the molecule `COc1cc(-c2ccc(OC3(C(=O)O)CCOCC3)cc2COC2CCCC2)c(F)c(OC)c1C` [Compound 209, 4-((2-((cyclopentyloxy)methyl)-2′-fluoro-3′,5′-dimethoxy-4′-methyl-[1,1′-biphenyl]-4-yl)oxy)tetrahydro-2H-pyran-4-carboxylic acid], the pIC50 is 7.81 under setting [1] and greater than 7.00 under setting [2].

In the case of `COc1ccc(C)c(-c2ccc(NC3(C(=O)O)CCOCC3)cc2COC2CCCC2)c1` [Compound 173], the negative-log IC50 (pIC50) by setting is: under setting [1], 6.50; under setting [2], 6.00 to 7.00.

`COc1cc(-c2ccc(N(C)CCC(=O)O)cc2COC2Cc3ccccc3C2)cc(OC)c1C` [Compound 107]: the pIC50 is 5.59 under setting [1] and less than 6.00 under setting [2].

As to `CCOc1cc(OC)cc(-c2ccc(NC3(C(=O)O)CCOCC3)cc2COC2CC2)c1` [Compound 316], the negative logarithm of the IC50 (pIC50) reads like this: under setting [1], 5.97; under setting [2], less than 6.00.

As to `COc1cc(-c2ccc(NC3(C(=O)O)CCOCC3)cc2COCC2(C#N)CC2)cc(OC)c1C` [Compound 151], the negative-log IC50 (pIC50) under setting [1] is 5.80 and the negative-log IC50 (pIC50) under setting [2] is less than 6.00.

With `COc1cc(-c2ccc(NC3(C(=O)O)CCOCC3)cc2CNC2CCCC2)cc(OC)c1C` [Compound 153], the pIC50 was less than 5.00 under setting [1] and less than 6.00 under setting [2].

For the molecule `Cc1c(OC2CC2)cccc1-c1ccc(NC2(C(=O)O)CCC(F)(F)CC2)cc1COC1CC1` [Compound 387], the negative-log IC50 (pIC50) under setting [1] was 8.36 and the pIC50 under setting [2] was greater than 7.00.

As for `COc1cc(-c2ccc(NC3(C(=O)O)CCOCC3)cc2COC2COc3ccccc32)c(F)c(OC)c1C` (single isomer, unassigned) [Compound 223], the pIC50 is 8.32 under setting [1] and greater than 7.00 under setting [2].

Turning to `COc1cc(-c2ccc(NC3(C(=O)O)CC(OC)C3)cc2COC2Cc3ccccc3C2)cc(OC)c1C` (single isomer, unassigned) [Compound 126], the pIC50 is 7.49 under setting [1] and greater than 7.00 under setting [2].

Consider `CCCc1cccc(-c2ccc(NC3(C(=O)O)CCOCC3)cc2COC2CC2)c1F` [Compound 326], for which the pIC50 under setting [1] was 6.91 and the negative logarithm of the IC50 (pIC50) under setting [2] was 6.00 to 7.00.

Turning to `COc1cc(OC)c(F)c(-c2ccc(NC3(C(=O)O)CCOCC3)cc2CCC2CCCC2)c1` [Compound 228], the pIC50 was 8.58 under setting [1] and greater than 7.00 under setting [2].

On to `CCOc1cncc(-c2ccc(OC3(C(=O)O)CCOCC3)cc2COC2CC2)c1C(F)F` [Compound 415], for which the pIC50 was 7.18 under setting [1] and greater than 7.00 under setting [2].

With `COc1cc(-c2ccc(OC3(C(=O)O)CCOCC3)cc2CCC2CCOC2)c(F)c(OC)c1C` (stereo not shown) [Compound 260], the pIC50 is 6.76 under setting [1] and 6.00 to 7.00 under setting [2].

For `COc1cc(OC)c(C(F)F)c(-c2ccc(NC3(C(=O)O)CCOCC3)cc2COC2CCCC2)c1` [Compound 320], the negative-log IC50 (pIC50) runs as follows: under setting [1], 7.92; under setting [2], greater than 7.00.

Regarding `CCOc1ccnc(-c2ccc(NC3(C(=O)O)CCOCC3)cc2COC2CC2)c1C(F)F` [Compound 323], the pIC50 by setting is: under setting [1], 6.08; under setting [2], 6.00 to 7.00.

Take `COc1cc(-c2ccc(NC3(C(=O)O)CCOCC3)cc2COC2Cc3ccccc3C2)cc(OC)c1C#N` [Compound 127]: the negative logarithm of the IC50 (pIC50) was 7.79 under setting [1] and greater than 7.00 under setting [2].

For the molecule `COc1cc(-c2ccc(NC3(C(=O)O)CCN(C)CC3)cc2COC2CCCC2)cc(OC)c1C` [Compound 138], the pIC50 is 6.76 under setting [1] and 6.00 to 7.00 under setting [2].

As to `CCOc1cccc(-c2ccc(NC3(C(=O)O)CCC(F)(F)CC3)cc2COC2CC2)c1C(F)F` [Compound 384], the pIC50 under setting [1] was 9.10 and the pIC50 under setting [2] is greater than 7.00.

For the molecule `CCCc1nccc(-c2ccc(NC3(C(=O)O)CCOCC3)cc2COC2CC2)c1F` [Compound 393], the pIC50 under setting [1] was less than 5.00 and the pIC50 under setting [2] is less than 6.00.

Regarding `CCCCOCc1cc(NC2(C(=O)O)CCOCC2)ccc1-c1cc(OC)c(C)c(OC)c1F` [Compound 335], the pIC50 runs as follows: under setting [1], 8.25; under setting [2], greater than 7.00.

Take `COc1cc(-c2ccc(NC3(C(=O)O)CCOCC3)cc2COC2CCCC2)c(F)c(OC)c1C(C)O` (stereo not shown) [Compound 300]: the negative logarithm of the IC50 (pIC50) was 7.45 under setting [1] and greater than 7.00 under setting [2].

As for `COc1cc(-c2ccc(NC3(C(=O)O)CCOCC3)cc2COC2CCCC2)c(C)c(OC)c1C` [Compound 148, 4-((2-((cyclopentyloxy)methyl)-3′,5′-dimethoxy-2′,4′-dimethyl-[1,1′-biphenyl]-4-yl)amino)tetrahydro-2H-pyran-4-carboxylic acid], the negative-log IC50 (pIC50) by setting is: under setting [1], 7.98; under setting [2], greater than 7.00.

Regarding `CCc1nccc(-c2ccc(NC3(C(=O)O)CCOCC3)cc2COC2CC2)c1F` [Compound 339], the pIC50 under setting [1] is 7.07 and the pIC50 under setting [2] was greater than 7.00.

Regarding `CCCCOCc1cc(NC2(C(=O)O)CCOCC2)ccc1-c1cc(OC)cc(OC)c1Cl` [Compound 402], the negative logarithm of the IC50 (pIC50) runs as follows: under setting [1], 8.12; under setting [2], greater than 7.00.

As to `CCOC1CC(Nc2ccc(-c3cc(OC)c(C)c(OC)c3C)c(COC3CCCC3)c2)(C(=O)O)C1` (stereo not shown) [Compound 214], the negative logarithm of the IC50 (pIC50) by setting is: under setting [1], 7.23; under setting [2], greater than 7.00.

As to `CCOc1cccc(-c2ccc(OC3(C(=O)O)CCOCC3)cc2COC2CC2)c1Cl` [Compound 374], the pIC50 by setting is: under setting [1], 7.84; under setting [2], greater than 7.00.

In the case of `CCCCOCc1cc(NC2(C(=O)O)CCOCC2)ccc1-c1ccc(C)c(OCC)c1C` [Compound 399], the pIC50 runs as follows: under setting [1], 8.19; under setting [2], greater than 7.00.

With `COc1cc(-c2ccc(NC3(C(=O)O)CCOCC3)cc2CO[C@@H]2CCC[C@H]2OC)c(C)c(OC)c1C` (racemic) [Compound 204], the negative-log IC50 (pIC50) is, setting by setting: under setting [1], 6.79; under setting [2], 6.00 to 7.00.

In the case of `COc1cc(OC2CC2)cc(-c2ccc(OC3(C(=O)O)CCOCC3)cc2COC2CCCC2)c1` [Compound 378], the negative logarithm of the IC50 (pIC50) under setting [1] is 6.08 and the negative-log IC50 (pIC50) under setting [2] is 6.00 to 7.00.

With `COc1cc(-c2ccc(NC3(C(=O)O)CCOCC3)cc2COC2CC2)c(C)c(OC)c1C` [Compound 318], the pIC50 is, setting by setting: under setting [1], 8.02; under setting [2], greater than 7.00.

As for `COc1cc(-c2ccc(NCC(=O)O)cc2COC2Cc3ccccc3C2)cc(OC)c1C` [Compound 108], the negative logarithm of the IC50 (pIC50) under setting [1] is 5.73 and the pIC50 under setting [2] was less than 6.00.

Regarding `COc1cc(-c2c(C)cc(NC3(C(=O)O)CCOCC3)cc2CCC2CCOC2)cc(OC)c1C` (stereo not shown) [Compound 308], the pIC50 was 7.63 under setting [1] and greater than 7.00 under setting [2].

For `CCOc1cc(OC)cc(-c2ccc(OC3(C(=O)O)CCOCC3)cc2COC2CCCC2)c1F` [Compound 246], the negative logarithm of the IC50 (pIC50) is 7.61 under setting [1] and greater than 7.00 under setting [2].

For `COc1cc(-c2ccc(OCC3(C(=O)O)CCOCC3)cc2COC2CCCC2)c(F)c(OC)c1C` [Compound 232], the pIC50 was 6.12 under setting [1] and 6.00 to 7.00 under setting [2].

With `COCC(=O)N1CCC(Nc2cc(C)c(-c3cc(OC)cc(OC)c3)c(COC3CCCC3)c2)(C(=O)O)CC1` [Compound 176], the negative-log IC50 (pIC50) runs as follows: under setting [1], 6.05; under setting [2], 6.00 to 7.00.

In the case of `CCOc1cccc(-c2ccc(NC3(C(=O)O)CC3)cc2COC2CC2)c1C(F)F` [Compound 359], the negative logarithm of the IC50 (pIC50) is 7.30 under setting [1] and greater than 7.00 under setting [2].

Regarding `CCc1c(-c2ccc(NC3(C(=O)O)CCOCC3)cc2COC2CCCC2)cc(OC)c(C)c1OC` [Compound 203], the negative logarithm of the IC50 (pIC50) runs as follows: under setting [1], 7.59; under setting [2], greater than 7.00.

On to `COc1cc(OC2CC2)c(F)c(-c2ccc(NC3(C(=O)O)CCOCC3)cc2COC2CC2)c1` [Compound 290], for which the pIC50 is 7.80 under setting [1] and greater than 7.00 under setting [2].

Take `CCOc1cccc(-c2ccc(NC3(C(=O)O)CCOCC3)cc2COC2CC2)c1C(F)(F)F` [Compound 358]: the negative logarithm of the IC50 (pIC50) is 8.27 under setting [1] and greater than 7.00 under setting [2].

In the case of `COc1cc(-c2c(C)cc(NC3(C(=O)O)CCOCC3)cc2COC2CCCC2)c(C)c(OC)c1C` [Compound 149], the pIC50 runs as follows: under setting [1], 7.06; under setting [2], greater than 7.00.

For `COc1cc(-c2ccc(NC3(C(=O)O)CC3)cc2COC2Cc3ccccc3C2)cc(OC)c1C(C)=O` [Compound 121, 1-({4′-acetyl-2-[(2,3-dihydro-1H-inden-2-yloxy)methyl]-3′,5′-dimethoxy-[1,1′-biphenyl]-4-yl}amino)cyclopropane-1-carboxylic acid], the negative-log IC50 (pIC50) by setting is: under setting [1], 7.87; under setting [2], greater than 7.00.

Consider `COc1cc(-c2ccc(NC3(C(=O)O)CCOCC3)cc2COC2CCCC2)c(C(F)F)c(OC)c1C` [Compound 215], for which the negative logarithm of the IC50 (pIC50) under setting [1] is 7.97 and the pIC50 under setting [2] is greater than 7.00.

As to `Cc1c(OC2CC2)cccc1-c1ccc(OC2(C(=O)O)CCOCC2)cc1COC1CC1` [Compound 372], the pIC50 was 7.24 under setting [1] and greater than 7.00 under setting [2].

A word on the pIC50: it is −log10 of the IC50, conventionally taken in molar units.
